The values below come from the NIST ThermoML archive (doi:10.1021/je400231q).

The conditions of this data set: 101.33 kPa, Liquid, Vibrating tube method.

Numbers after ± are expanded uncertainties.

As to `CC(CC(C)(C)C)CP(=O)([O-])CC(C)CC(C)(C)C.CCCCCCCCCCCCCC[P+](CCCCCC)(CCCCCC)CCCCCC`, the mass density runs as follows: (293.15 K) 894 ± 11 kg/m3; (298.15 K) 890.8 ± 11 kg/m3; (303.15 K) 887.7 ± 11 kg/m3; (308.15 K) 884.6 ± 11 kg/m3; (313.15 K) 881.5 ± 11 kg/m3; (318.15 K) 878.4 ± 11 kg/m3. The mass density was found to be 875.3 ± 11 kg/m3 (323.15 K) and 872.3 ± 11 kg/m3 (328.15 K).

As to `CC(=O)[O-].CCn1cc[n+](C)c1` [1-ethyl-3-methylimidazolium acetate], the mass density reads like this: (293.15 K) 1101.5 ± 12 kg/m3; (298.15 K) 1098.3 ± 12 kg/m3; (303.15 K) 1095.1 ± 12 kg/m3; (308.15 K) 1092 ± 12 kg/m3; (313.15 K) 1088.9 ± 12 kg/m3; (318.15 K) 1085.8 ± 12 kg/m3. The mass density is given as 1082.8 ± 12 kg/m3 (323.15 K) and 1079.7 ± 12 kg/m3 (328.15 K).

Consider `CCOS(=O)(=O)[O-].CCn1cc[n+](C)c1` [1-ethyl-3-methylimidazolium ethyl sulfate], for which the mass density runs as follows: (293.15 K) 1236.7 ± 13 kg/m3; (298.15 K) 1233.2 ± 12 kg/m3; (303.15 K) 1229.8 ± 12 kg/m3; (308.15 K) 1226.3 ± 12 kg/m3; (313.15 K) 1222.9 ± 12 kg/m3; (318.15 K) 1219.5 ± 12 kg/m3. Moreover, the mass density (323.15 K) was 1216.2 ± 12 kg/m3 and the mass density (328.15 K) is on record as 1212.8 ± 12 kg/m3.

Take `CCn1cc[n+](C)c1.CS(=O)(=O)[O-]` [1-ethyl-3-methylimidazolium methanesulfonate]: the mass density was 1244.4 ± 13 kg/m3 (293.15 K); 1240.9 ± 13 kg/m3 (298.15 K); 1237.4 ± 13 kg/m3 (303.15 K); 1233.9 ± 12 kg/m3 (308.15 K); 1230.5 ± 12 kg/m3 (313.15 K); 1227 ± 12 kg/m3 (318.15 K). Besides, the mass density was 1223.7 ± 12 kg/m3 (323.15 K) and 1220.3 ± 12 kg/m3 (328.15 K).

Consider `CCn1cc[n+](C)c1.N#C[S-]` [1-ethyl-3-methylimidazolium thiocyanate], for which the mass density (293.15 K) came out at 1119.2 ± 12 kg/m3; the mass density (298.15 K) came out at 1116.1 ± 12 kg/m3; the mass density (303.15 K) was found to be 1113 ± 12 kg/m3; the mass density (308.15 K) was 1109.9 ± 12 kg/m3; the mass density (313.15 K) stood at 1106.9 ± 12 kg/m3; the mass density (318.15 K) is listed as 1103.8 ± 12 kg/m3. Also, the mass density was determined as 1100.8 ± 12 kg/m3 (323.15 K) and 1097.8 ± 12 kg/m3 (328.15 K).

In the case of `COS(=O)(=O)[O-].C[N+](CCO)(CCO)CCO` [tris(2-hydroxyethyl) methylammonium methylsulfate], the mass density (293.15 K) was 1347.2 ± 14 kg/m3; the mass density (298.15 K) is 1344.3 ± 14 kg/m3; the mass density (303.15 K) is 1341.4 ± 13 kg/m3; the mass density (308.15 K) was found to be 1338.5 ± 13 kg/m3; the mass density (313.15 K) was 1335.7 ± 13 kg/m3; the mass density (318.15 K) stood at 1332.9 ± 13 kg/m3. For the same molecule, the mass density is, setting by setting: (323.15 K) 1330.2 ± 13 kg/m3; (328.15 K) 1327.4 ± 13 kg/m3.

Broadly, the mass density is the mass of a sample divided by its volume.
